According to ChEMBL document CHEMBL5620408, “Discovery of novel diarypyrimidine derivatives bearing six-membered non-aromatic heterocycles as potent HIV-1 NNRTIs with improved anti-resistance and drug-like profiles” (Eur J Med Chem, 2023):
Calls of active or inactive are those of the source. No cut-off for these calls is given here.

Key:
[1] = Selectivity index, ratio of CC50 for human MT4 cells to EC50 for antiviral activity against HIV IIIB
MT4 = assay: Cytotoxicity against human MT4 cells; type: toxicity, cell-based
[2] = test system: Human immunodeficiency virus 1; assay: Antiviral activity against HIV1 harboring Y188L mutant infected in MT4 cells; type: functional, organism-based; conditions: Human immunodeficiency virus 1, MT4
[3] = test system: Human immunodeficiency virus 1; assay: Antiviral activity against HIV1 NL4-3 infected in MT4 cells; type: functional, organism-based; conditions: Human immunodeficiency virus 1, NL4-3, MT4
[4] = test system: Human immunodeficiency virus 1; assay: microbe, parasite or virus in culture; conditions: Human immunodeficiency virus 1, IIIB, MT4
Description: Antiviral activity against HIV1 IIIB infected in MT-4 cells assessed as viral induced cytopathic effect by MTT assay

[5] = Cytotoxicity against human MT4 cells assessed as reduction in cell viability by MTT assay; type: toxicity, cell-based
[6] = test system: Human immunodeficiency virus 1; assay: Antiviral activity against HIV1 harboring Y181C mutant infected in MT4 cells; type: functional, organism-based; conditions: Human immunodeficiency virus 1, MT4
[7] = test system: Human immunodeficiency virus 1; assay: Antiviral activity against HIV1 harboring E138K mutant infected in MT4 cells; type: functional, organism-based; conditions: Human immunodeficiency virus 1, MT4
[8] = test system: Human immunodeficiency virus 1; assay: Antiviral activity against HIV1 harboring L100I mutant infected in MT4 cells; type: functional, organism-based; conditions: Human immunodeficiency virus 1, MT4
[9] = test system: Human immunodeficiency virus 1; assay: Antiviral activity against HIV1 harboring K103N mutant infected in MT4 cells; type: functional, organism-based; conditions: Human immunodeficiency virus 1, MT4
[10] = test system: Human immunodeficiency virus 1; assay: microbe, parasite or virus in culture; conditions: Human immunodeficiency virus 1, RES056, MT4
Description: Antiviral activity against HIV1 RES056 infected in MT-4 cells assessed as viral induced cytopathic effect by MTT assay

[11] = test system: Human immunodeficiency virus 1; assay: Antiviral activity against HIV1 harboring F227L/V106A double mutant infected in MT4 cells; type: functional, organism-based; conditions: Human immunodeficiency virus 1, MT4
[12] = biological target: Human immunodeficiency virus type 1 reverse transcriptase (Human immunodeficiency virus 1, UniProt Q72547); assay: Inhibition of wild type HIV-1 reverse transcriptase
[13] = Selectivity index, ratio of CC50 for human MT4 cells to EC50 for antiviral activity against HIV RES056
[14] = test system: Human immunodeficiency virus 1; assay: Antiviral activity against HIV1 NL4-3 infected in MT4 cells at 25 ng/ml; type: functional, organism-based

SMILES	selectivity ratio [1]	Activity (MT4)	EC50 [2]	EC50 [3]	EC50 [4]	CC50 [5]	EC50 [6]	EC50 [7]	EC50 [8]	EC50 [9]	EC50 [10]	EC50 [11]	IC50 [12]	selectivity ratio [13]	Activity [14]
CCS(=O)(=O)N1CCN(c2ccc(Nc3nccc(Oc4c(C)cc(C#N)cc4C)n3)cc2F)CC1	> 55100	Non-Toxic	> 245000 nM	10.2 nM	4 nM	> 245000 nM	190 nM	64 nM	130 nM	21 nM	> 245000 nM	55 nM	58 nM		
Cc1ccnc2c1NC(=O)c1cccnc1N2C1CC1 [NEVIRAPINE]			> 15000 nM			> 15000 nM	7400 nM			6040 nM	> 15000 nM	> 15000 nM			
Cc1cc(/C=C/C#N)cc(C)c1Oc1ccnc(Nc2ccc(N3CCN(S(C)(=O)=O)CC3)c(F)c2)n1	1710	Non-Toxic	> 3210 nM	0.48 nM	2 nM	3210 nM	30 nM	11 nM	22 nM	3 nM	670 nM	34 nM	40 nM	5	
Cc1cc(/C=C/C#N)cc(C)c1Oc1ccnc(Nc2ccc(C3CCN(S(=O)(=O)C4CC4)CC3)cc2)n1	> 7650	Non-Toxic	> 37800 nM	5.95 nM	5 nM	> 37800 nM	380 nM	51 nM	110 nM	20 nM	> 37800 nM	57 nM	79 nM		
Cc1cc(/C=C/C#N)cc(C)c1Oc1ccnc(Nc2ccc(N3CCN(S(=O)(=O)C(C)C)CC3)c(F)c2)n1	3620	Non-Toxic	> 18100 nM	5.3 nM	5 nM	18100 nM	94 nM	29 nM	42 nM	7 nM	5880 nM	100 nM	97 nM	3	
Cc1cc(C#N)cc(C)c1Oc1ccnc(Nc2ccc(C3CCN(S(=O)(=O)N(C)C)CC3)cc2)n1		Non-Toxic													inactive
Cc1cc(/C=C/C#N)cc(C)c1Oc1ccnc(Nc2ccc(N3CCN(S(C)(=O)=O)CC3)cc2)n1	536	Non-Toxic	> 2570 nM	1.84 nM	5 nM	2570 nM	960 nM	850 nM	370 nM	37 nM	> 2570 nM	270 nM	65 nM	< 1	
Cc1cc(C#N)cc(C)c1Oc1ccnc(Nc2ccc(N3CCN(S(C)(=O)=O)CC3)cc2)n1		Non-Toxic													inactive
Cc1cc(C#N)cc(C)c1Oc1nc(Nc2ccc(C#N)cc2)nc(N)c1Br [ETRAVIRINE]						> 4590 nM				1 nM	76 nM	25 nM			
CCS(=O)(=O)N1CCN(c2ccc(Nc3nccc(Oc4c(C)cc(/C=C/C#N)cc4C)n3)cc2F)CC1	37900	Non-Toxic	> 111000 nM	1.64 nM	3 nM	111000 nM	30 nM	15 nM	21 nM	4 nM	1730 nM	36 nM	54 nM	64	
Cc1cc(C#N)cc(C)c1Oc1ccnc(Nc2ccc(C3CCN(S(=O)(=O)C(C)C)CC3)cc2)n1		Non-Toxic													inactive
Cc1cc(C#N)cc(C)c1Oc1ccnc(Nc2ccc(C3CCN(S(C)(=O)=O)CC3)cc2)n1		Non-Toxic													inactive
Cc1cc(/C=C/C#N)cc(C)c1Oc1ccnc(Nc2ccc(N3CCN(S(=O)(=O)N(C)C)CC3)c(F)c2)n1	993	Non-Toxic	> 4590 nM	5.67 nM	5 nM	4590 nM	120 nM	32 nM	58 nM	9 nM	> 4590 nM	68 nM	78 nM	< 1	
Cc1cc(/C=C/C#N)cc(C)c1Oc1ccnc(Nc2ccc(N3CC[S+]([O-])CC3)c(F)c2)n1	9800		5120 nM		1 nM	13300 nM	84 nM	24 nM	34 nM	4 nM	1300 nM	130 nM	27 nM	10	
Cc1cc(/C=C/C#N)cc(C)c1Oc1ccnc(Nc2ccc(N3CCOCC3)c(F)c2)n1	49600		4190 nM		5 nM	228000 nM	44 nM	25 nM	27 nM	5 nM	840 nM	100 nM	46 nM	272	
CCS(=O)(=O)N1CCN(c2ccc(Nc3nccc(Oc4c(C)cc(C#N)cc4C)n3)cc2)CC1		Non-Toxic													inactive
Cc1cc(/C=C/C#N)cc(C)c1Oc1ccnc(Nc2ccc(CN3CCN(S(C)(=O)=O)CC3)cc2)n1		Non-Toxic	1320 nM	0.79 nM				9 nM	14 nM	4 nM		210 nM	33 nM		
O=C1Nc2ccc(Cl)cc2[C@@](C#CC2CC2)(C(F)(F)F)O1 [EFAVIRENZ]			250 nM			> 6330 nM			53 nM						
Cc1cc(/C=C/C#N)cc(C)c1Oc1ccnc(Nc2ccc(C3CCN(S(C)(=O)=O)CC3)cc2)n1	1030	Non-Toxic	> 4300 nM	6.23 nM	4 nM	4300 nM	320 nM	30 nM	92 nM	14 nM	> 4300 nM	42 nM	44 nM	< 1	
Cc1cc(/C=C/C#N)cc(C)c1Oc1ccnc(Nc2ccc(C3CCN(S(=O)(=O)C(C)C)CC3)cc2)n1	298	Non-Toxic		11.9 nM	8 nM	2380 nM					> 2380 nM		130 nM	< 1	
CCS(=O)(=O)N1CCN(c2ccc(Nc3nccc(Oc4c(C)cc(/C=C/C#N)cc4C)n3)cc2)CC1	> 7740	Non-Toxic	> 38600 nM	2.18 nM	5 nM	> 38600 nM	810 nM	85 nM	450 nM	48 nM	> 38600 nM	240 nM	100 nM		
